In patent publication US8394971B2, “Indole derivatives as selective androgen receptor modulators (SARMS)” (Janssen Pharmaceutica N.V., priority 2004, dated 2013):
Several values for one entry are separate records, joined by “and”; a condition that tells them apart may be missing. Equal entries are not always repeated.

What was measured:
[1] = system: testosterone-enhanced ventral prostate and seminal vesicle weights in castrated male Sprague Dawley rats; assay: Ventral Prostate and Seminal Vesicle Weight In Vivo Assay; design: species or system rat; details: immature castrated rats; once daily for five days, usually orally at 40 mg/kg, with testosterone propionate 2 mg/kg s.c.
Procedure, shortened: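 Immature (~50 g) castrated Sprague Dawley rats dosed once daily for five days with compound (usually oral, 40 mg/kg, cyclodextrin or methylcellulose vehicle) plus testosterone propionate 2 mg/kg s.c. Wet ventral prostate and seminal vesicle weights taken on day six; activity judged by prostate weight or body-weight-adjusted % inhibition.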

[2] = biological target: T1, androgen receptor (adenovirus AdEasy+rAR in COS-7 cells) (Rattus norvegicus, UniProt P15207); assay: COS-7 Whole-Cell Androgen Receptor Binding Assay, Adenovirus Transduction; details: COS binding; for % Inhibition / inhibition at 3 µM: 3000 nM unless otherwise noted
T1 construct: expressed in transfected cells
T1 sequence (P15207 1-902): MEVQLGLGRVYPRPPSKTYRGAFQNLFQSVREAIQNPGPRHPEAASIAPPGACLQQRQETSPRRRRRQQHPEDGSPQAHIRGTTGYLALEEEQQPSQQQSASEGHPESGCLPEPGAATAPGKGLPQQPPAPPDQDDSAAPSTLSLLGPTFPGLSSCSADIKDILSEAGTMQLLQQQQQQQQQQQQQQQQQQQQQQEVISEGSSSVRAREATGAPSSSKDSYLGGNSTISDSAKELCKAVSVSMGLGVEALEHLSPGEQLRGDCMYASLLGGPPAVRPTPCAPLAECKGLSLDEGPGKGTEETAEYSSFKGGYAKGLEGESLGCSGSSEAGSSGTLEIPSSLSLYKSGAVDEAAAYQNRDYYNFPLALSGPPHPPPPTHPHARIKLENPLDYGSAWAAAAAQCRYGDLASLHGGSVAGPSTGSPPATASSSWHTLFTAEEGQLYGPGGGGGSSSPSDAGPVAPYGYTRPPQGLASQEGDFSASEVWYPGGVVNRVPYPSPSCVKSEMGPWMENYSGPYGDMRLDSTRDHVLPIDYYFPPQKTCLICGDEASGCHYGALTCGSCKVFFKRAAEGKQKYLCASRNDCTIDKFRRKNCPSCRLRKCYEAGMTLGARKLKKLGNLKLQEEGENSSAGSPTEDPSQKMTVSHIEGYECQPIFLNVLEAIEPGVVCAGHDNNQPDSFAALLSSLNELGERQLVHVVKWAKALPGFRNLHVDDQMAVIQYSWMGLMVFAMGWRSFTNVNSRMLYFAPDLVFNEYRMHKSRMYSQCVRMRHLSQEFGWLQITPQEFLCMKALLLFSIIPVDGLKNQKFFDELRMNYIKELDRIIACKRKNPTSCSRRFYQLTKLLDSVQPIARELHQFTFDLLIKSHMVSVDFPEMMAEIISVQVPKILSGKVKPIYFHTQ
Experimental: COS-7 cells were plated in 96-well plates at 20,000 cells per well, in a solution of DMEM/F12 (GIBCO) containing 10% (v/v) charcoal-treated fetal bovine serum (Hyclone) and lacking phenol red. The cells were then incubated overnight at 37° C. in 5% (v/v) humidified CO2.
Test compound solutions were prepared by diluting the test compound in 100% (v/v) DMSO, if necessary.
Next, 1 mL of DMEM/F12 lacking phenol red was pipetted into each of the wells of a 2-mL 96-well assay block. […] The wells were carefully mixed by pipette.
In a 15 mL or 50 mL sterile centrifuge tube, a dilution in DMEM/F12 of the adenovirus AdEasy+rAR at a moi of 1:50 per well was prepared.
The medium was removed from the 96-well plates by inversion and the plates dried very briefly, inverted, on a sterile towel. As soon as possible after medium removal, 40 μL of the diluted test compound was added to each well, in duplicate. […] The plates were then incubated for 48 hours at 37° C. in 5% (v/v) humidified CO2.
The medium was removed from the above incubated plates by inversion and dried. Each well was then washed with 0.35 mL of 1×PBS. The PBS was then removed from the plates by inversion and the plates dried.
To each well was then added 50 μL of 0.5% (v/v) Triton X-100 (Sigma) in 1×PBS and the plates placed on a rotary shaker for 5 min. The contents of each well were then transferred to an OptiPlate-96 (Packard) scintillation plate. To each well was then added 0.2 mL of Microscint-20 (Packard) and the wells counted on a TopCount (Packard).
[…] Counts per well were measured and percents of inhibition determined. […] Counts per well were measured and IC50s determined by linear regression.

[3] = biological target: T2, androgen receptor (adenovirus AdEasy+rAR in L929 cells) (Rattus norvegicus, UniProt P15207); assay: L929 Androgen Receptor Functional Assay, Adenovirus Transduction; type: cell-based; details: for % Activity: L929 agonist testing; for inhibition at 3 µM: L929, L929 antagonist testing with R1881
T2 construct: expressed in transfected cells
T2 sequence (P15207 1-902): T1 sequence (P15207 1-902)
Procedure, shortened: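 L929 cells in phenol red-free, charcoal-stripped serum medium transduced with AdEasy+rAR (moi 1:500) and exposed 48 h at 37 °C to compound alone (agonist mode) or with R1881 (antagonist mode; 2.5 nM as the 2.5× dilution).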

SMILES: CCSCC(C)(O)c1[nH]c2cc(C(F)(F)F)c(C#N)cc2c1C (single isomer, unassigned) [Compound #233, 2-(2-Ethylsulfanyl-1-hydroxy-1-methyl-ethyl)-3-methyl-6-trifluoromethyl-1H-indole-5-carbonitrile]
- active / inactive (inhibition of testosterone-enhanced prostate weight) [1]: active
- % Inhibition [2]: 95% and 81%
- % Activity ([3]; 3000 nM, 3 µM): 0%

SMILES: CCSCC(C)(O)c1cc2cc(C#N)c(C(F)(F)F)cc2n1C (stereo not drawn) [compound 236]
- active / inactive (inhibition of testosterone-enhanced prostate weight) [1]: active
- inhibition at 3 µM [2]: 83%
- % Activity ([3]; 3000 nM): 2%

SMILES: CCC(O)(CS(=O)(=O)CC)c1cc2cc([N+](=O)[O-])c(C(F)(F)F)cc2[nH]1 (stereo not drawn) [compound 176]
- active / inactive (inhibition of testosterone-enhanced prostate weight) [1]: active
- inhibition at 3 µM [2]: 75%
- % Activity ([3]; 3000 nM): 3%

SMILES: CC(O)(CSCC(F)(F)F)c1cc2cc([N+](=O)[O-])c(C(F)(F)F)cc2[nH]1 (stereo not drawn) [compound 201]
- active / inactive (inhibition of testosterone-enhanced prostate weight) [1]: inactive
- % Inhibition [2]: 86%
- % Activity ([3]; 3000 nM, 3 µM): 2%

SMILES: C[S+]([O-])CCC(C)(O)c1cc2cc([N+](=O)[O-])c(C(F)(F)F)cc2[nH]1 (mixture of isomers) [compound 50]
- active / inactive (inhibition of testosterone-enhanced prostate weight) [1]: inactive
- % Inhibition [2]: 7%
- % Activity ([3]; 3000 nM): 2%

SMILES: CCC(O)(CSCC(F)(F)F)c1cc2cc([N+](=O)[O-])c(C(F)(F)F)cc2[nH]1 (stereo not drawn) [compound 185]
- active / inactive (inhibition of testosterone-enhanced prostate weight) [1]: active
- inhibition at 3 µM [2]: 92%
- % Activity ([3]; 3000 nM): 2%

SMILES: CCS(=O)(=O)CC(C)(O)c1cc2cc([N+](=O)[O-])c(C(F)(F)F)cc2[nH]1 (stereo not drawn) [compound 143]
- active / inactive (inhibition of testosterone-enhanced prostate weight) [1]: active
- inhibition at 3 µM [2]: 68%
- % Activity ([3]; 3000 nM): 0%

SMILES: CC(O)(CSCc1ccccc1)c1cc2cc([N+](=O)[O-])c(C(F)(F)F)cc2[nH]1 (stereo not drawn) [compound 160]
- active / inactive (inhibition of testosterone-enhanced prostate weight) [1]: inactive
- inhibition at 3 µM [2]: 84%
- % Activity ([3]; 3000 nM): 1%

SMILES: CC(O)(CSCC(F)(F)F)c1cc2cc(F)c(C(F)(F)F)cc2[nH]1 (stereo not drawn) [compound 189]
- active / inactive (inhibition of testosterone-enhanced prostate weight) [1]: inactive
- inhibition at 3 µM [2]: 100%
- % Activity ([3]; 3000 nM): 3%

SMILES: CCC(O)(CS(=O)(=O)CC(F)(F)F)c1[nH]c2cc(C(F)(F)F)c([N+](=O)[O-])cc2c1Cl (stereo not drawn) [compound 199]
- active / inactive (inhibition of testosterone-enhanced prostate weight) [1]: inactive
- inhibition at 3 µM [2]: 82%
- % Activity ([3]; 3000 nM): 2%

SMILES: CC(O)(CS(=O)(=O)c1ccc(N)cc1)c1cc2cc(Cl)c(C(F)(F)F)cc2[nH]1 (stereo not drawn) [compound 118]
- active / inactive (inhibition of testosterone-enhanced prostate weight) [1]: inactive
- inhibition at 3 µM [2]: 62%
- % Activity ([3]; @ 8000 nM): −2 @ 8000 nM %

SMILES: CCSCC(C)(O)c1cc2cc(C#N)c(C(F)(F)F)cc2[nH]1 (single isomer, unassigned) [Compound #217, 2-(2-Ethylsulfanyl-1-hydroxy-1-methyl-ethyl)-6-trifluoromethyl-1H-indole-5-carbonitrile]
- active / inactive (inhibition of testosterone-enhanced prostate weight) [1]: active
- % Inhibition [2]: 38% and 69%
- inhibition at 3 µM ([3]; 3000 nM): 87%
- % Activity ([3]; 3000 nM): 5%
- % Activity ([3]; @ 8000 nM): 0 @ 8000 nM %

SMILES: CCCSCC(C)(O)c1cc2cc([N+](=O)[O-])c(C(F)(F)F)cc2[nH]1 (stereo not drawn) [compound 168]
- active / inactive (inhibition of testosterone-enhanced prostate weight) [1]: inactive
- inhibition at 3 µM [2]: 60%
- % Activity ([3]; 3000 nM): 3%

SMILES: CC(O)(CSCC(F)(F)F)c1cc2cc([N+](=O)[O-])c(C(F)(F)F)cc2[nH]1 (stereo not drawn) [compound 171]
- active / inactive (inhibition of testosterone-enhanced prostate weight) [1]: active
- % Inhibition [2]: 94%
- inhibition at 3 µM [2]: 92%
- % Activity ([3]; 3000 nM, 3 µM): 11%
- % Activity ([3]; @ 8000 nM): −1 @ 8000 nM %

SMILES: CCSCC(O)(CC)c1cc2cc([N+](=O)[O-])c(C(F)(F)F)cc2[nH]1 (stereo not drawn) [compound 169]
- active / inactive (inhibition of testosterone-enhanced prostate weight) [1]: active
- inhibition at 3 µM [2]: 90%
- % Activity ([3]; 3000 nM): 2%

SMILES: CCSCC(O)c1cc2cc([N+](=O)[O-])c(C(F)(F)F)cc2[nH]1 (stereo not drawn) [compound 158]
- active / inactive (inhibition of testosterone-enhanced prostate weight) [1]: inactive
- % Inhibition [2]: 56%
- inhibition at 3 µM [2]: 62%
- % Activity ([3]; 3000 nM, 3 µM): 3% and 2%

SMILES: CCCCSCC(C)(O)c1cc2cc([N+](=O)[O-])c(C(F)(F)F)cc2[nH]1 (stereo not drawn) [compound 200]
- active / inactive (inhibition of testosterone-enhanced prostate weight) [1]: inactive
- inhibition at 3 µM [2]: 97%
- % Activity ([3]; 3000 nM): 1%

SMILES: CC[S+]([O-])CC(C)(O)c1[nH]c2cc(C(F)(F)F)c(C#N)cc2c1C (stereo not drawn) [compound 252]
- active / inactive (inhibition of testosterone-enhanced prostate weight) [1]: active
- inhibition at 3 µM [2]: 68%
- IC50 ([2]; read-out: IC50): > 3 µM
- inhibition at 3 µM ([3]; 3000 nM): 65%
- % Activity ([3]; 3000 nM): 1%

SMILES: CC(O)(CSC1CCCC1)c1cc2cc([N+](=O)[O-])c(C(F)(F)F)cc2[nH]1 (stereo not drawn) [compound 173]
- active / inactive (inhibition of testosterone-enhanced prostate weight) [1]: inactive
- inhibition at 3 µM [2]: 17%
- % Activity ([3]; 3000 nM): 2%

SMILES: CCSCC(C)(O)c1cc2cc([N+](=O)[O-])c(C(F)(F)F)cc2[nH]1 (racemic) [compound 142]
- active / inactive (inhibition of testosterone-enhanced prostate weight) [1]: active
- % Inhibition [2]: 90%
- inhibition at 3 µM ([3]; 3000 nM): 78%
- % Activity ([3]; 3000 nM, 3 µM): 0%

SMILES: CSCC(C)(O)c1cc2cc(C#N)c(C(F)(F)F)cc2[nH]1 (stereo not drawn) [compound 136]
- active / inactive (inhibition of testosterone-enhanced prostate weight) [1]: active
- inhibition at 3 µM [2]: 4.8%
- % Activity ([3]; 3000 nM): 0%

SMILES: CC(O)(CSCc1cccs1)c1cc2cc([N+](=O)[O-])c(C(F)(F)F)cc2[nH]1 (stereo not drawn) [compound 197]
- active / inactive (inhibition of testosterone-enhanced prostate weight) [1]: inactive
- inhibition at 3 µM [2]: 86%
- % Activity ([3]; 3000 nM): 2%

SMILES: CC(O)(CSc1ccc(N)cc1)c1cc2cc(Cl)c(C(F)(F)F)cc2[nH]1 (stereo not drawn) [compound 104]
- active / inactive (inhibition of testosterone-enhanced prostate weight) [1]: inactive
- inhibition at 3 µM [2]: 94%
- % Activity ([3]; 3000 nM): 9%

SMILES: CC(C)SCC(C)(O)c1cc2cc([N+](=O)[O-])c(C(F)(F)F)cc2[nH]1 (stereo not drawn) [compound 164]
- active / inactive (inhibition of testosterone-enhanced prostate weight) [1]: inactive
- inhibition at 3 µM [2]: 68%
- % Activity ([3]; 3000 nM): 2%

SMILES: CCC(O)(CS(=O)(=O)CC(F)(F)F)c1cc2cc([N+](=O)[O-])c(C(F)(F)F)cc2[nH]1 (stereo not drawn) [compound 191]
- active / inactive (inhibition of testosterone-enhanced prostate weight) [1]: active
- inhibition at 3 µM [2]: 65%
- % Activity ([3]; 3000 nM): 2%

SMILES: CCS(=O)(=O)CC(C)(O)c1[nH]c2cc(C(F)(F)F)c(C#N)cc2c1C (single isomer, unassigned) [Compound #251, 2-(2-Ethanesulfonyl-1-hydroxy-1-methyl-ethyl)-3-methyl-6-trifluoromethyl-1H-indole-5-carbonitrile]
- active / inactive (inhibition of testosterone-enhanced prostate weight) [1]: active
- % Inhibition [2]: 85%
- inhibition at 3 µM ([3]; 3000 nM): 90%
- % Activity ([3]; 3000 nM): −1%
